A value given as a limit tells only on which side of the number the result lay.

Sequence of VEGFR2 (KDR) kinase, purified cytoplasmic domain KDR protein (P35968 786-1356): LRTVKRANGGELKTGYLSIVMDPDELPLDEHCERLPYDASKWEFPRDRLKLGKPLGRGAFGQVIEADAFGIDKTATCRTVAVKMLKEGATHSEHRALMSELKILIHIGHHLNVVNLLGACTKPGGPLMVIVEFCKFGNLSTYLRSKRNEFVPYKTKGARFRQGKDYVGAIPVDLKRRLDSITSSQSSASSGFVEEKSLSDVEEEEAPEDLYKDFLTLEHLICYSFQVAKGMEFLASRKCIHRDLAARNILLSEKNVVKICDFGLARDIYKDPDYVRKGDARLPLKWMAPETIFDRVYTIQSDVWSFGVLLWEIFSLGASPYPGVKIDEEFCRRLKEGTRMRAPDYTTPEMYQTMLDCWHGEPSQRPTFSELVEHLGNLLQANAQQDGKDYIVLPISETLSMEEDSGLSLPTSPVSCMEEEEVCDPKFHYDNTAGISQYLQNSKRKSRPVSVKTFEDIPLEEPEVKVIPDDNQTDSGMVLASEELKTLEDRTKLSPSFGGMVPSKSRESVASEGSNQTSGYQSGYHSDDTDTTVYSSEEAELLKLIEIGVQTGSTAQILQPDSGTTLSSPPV
Sequence of PDGFRβ kinase, purified cytoplasmic domain PDGFR-β protein (P09619 554-1106): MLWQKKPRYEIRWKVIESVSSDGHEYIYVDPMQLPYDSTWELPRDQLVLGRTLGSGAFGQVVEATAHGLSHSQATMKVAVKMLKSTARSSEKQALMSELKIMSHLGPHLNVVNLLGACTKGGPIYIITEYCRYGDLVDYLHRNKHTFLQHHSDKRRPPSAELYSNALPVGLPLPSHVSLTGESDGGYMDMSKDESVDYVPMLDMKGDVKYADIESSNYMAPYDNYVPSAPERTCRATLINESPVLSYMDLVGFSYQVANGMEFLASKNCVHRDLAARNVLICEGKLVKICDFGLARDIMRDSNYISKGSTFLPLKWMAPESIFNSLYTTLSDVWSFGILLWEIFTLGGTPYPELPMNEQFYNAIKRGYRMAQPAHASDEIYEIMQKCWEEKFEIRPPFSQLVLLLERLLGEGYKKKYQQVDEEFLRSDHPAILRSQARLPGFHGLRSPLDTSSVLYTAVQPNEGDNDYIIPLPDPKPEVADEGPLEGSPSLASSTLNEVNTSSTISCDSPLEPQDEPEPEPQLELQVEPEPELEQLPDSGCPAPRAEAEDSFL

One assay has as its target VEGFR2 (KDR) kinase, purified cytoplasmic domain KDR protein (Homo sapiens (Human), UniProt P35968). The assay can be described thus: VEGFR2 Kinase Assay. The class given is biochemical. The following applies: 2.7 μM ATP, poly-Glu-Tyr (4:1) substrate, 15 minute incubation at 30° C., ELISA read at 492 nm. The protocol: Biochemical KDR kinase assays were performed in 96 well microliter plates that were coated overnight with 75 μg/well of poly-Glu-Tyr (4:1) in 10 mM Phosphate Buffered Saline (PBS), pH 7.4. The coated plates were washed with 2 mls per well PBS+0.05% Tween-20 (PBS-T), blocked by incubation with PBS containing 1% BSA, then washed with 2 mls per well PBS-T prior to starting the reaction. […] Reactions were initiated by the addition 20 ul per well of kinase buffer containing 200-300 ng purified cytoplasmic domain KDR protein (BPS Bioscience, San Diego, Calif.). Following a 15 minute incubation at 30° C., the reactions were washed 2 mls per well PBS-T. 100 μl of a monoclonal anti-phosphotyrosine antibody-peroxidase conjugate diluted 1:10,000 in PBS-T was added to the wells for 30 minutes. Following a 2 mls per well wash with PBS-Tween-20, 100 μl of O-Phenylenediamine Dihydrochloride in phosphate-citrate buffer, containing urea hydrogen peroxide, was added to the wells for 7-10 minutes as a colorimetric substrate for the peroxidase. […] IC50 values for compound inhibition were calculated directly from graphs of optical density (arbitrary units) versus compound concentration following subtraction of blank values.
On to `Cc1ccc(NC(=O)Nc2ccc(N3CCc4ccncc4C3)cc2)cc1` [Example 165, 1-[4-(3,4-dihydro-2,7-naphthyridin-2(1H)-yl)phenyl]-3-(4-methylphenyl)urea], for which the half-inhibitory concentration (IC50) is over 1000 nM.
For `CSc1ncc2c(n1)CCN(c1cc(C)cc(C(=O)Nc3cccc(C(C)C)c3)c1)C2` [Example 142, N-(3-isopropylphenyl)-3-methyl-5-[2-(methylthio)-7,8-dihydropyrido[4,3-d]pyrimidin-6(5H)-yl]benzamide], the concentration for half-maximal inhibition (IC50) is over 1000 nM.
Compound “4-(2-Methylsulfanyl-5,7-dihydro-pyrrolo[3,4-d]pyrimidin-6-yl)-pyridine-2-carboxylic acid (3-trifluoromethyl-phenyl)-amide [Example 126]” came in with an IC50 of over 10000 nM.
With `CSc1ncc2c(n1)CCN(c1cc(C)cc(C(=O)Nc3cccc(C(F)(F)F)c3)c1)C2` [Example 140, 3-methyl-5-[2-(methylthio)-7,8-dihydropyrido[4,3-d]pyrimidin-6(5H)-yl]-N-[3-(trifluoromethyl)phenyl]benzamide], the half-maximal inhibitory concentration (IC50) was over 1000 nM.

The target of the next assay is PDGFRβ kinase, purified cytoplasmic domain PDGFR-β protein (Homo sapiens (Human), UniProt P09619). The assay can be described thus: PDGFRβ Kinase Assay. The assay is classed as biochemical. The following applies: 36 μM ATP, poly-Glu-Tyr (4:1) substrate, 60 minute incubation at 30° C., ELISA read at 492 nm. The procedure:
Biochemical PDGFRβ kinase assays were performed in 96 well microliter plates that were coated overnight with 75 μg of poly-Glu-Tyr (4:1) in 10 mM Phosphate Buffered Saline (PBS), pH 7.4. The coated plates were washed with 2 mls per well PBS+0.05% Tween-20 (PBS-T), blocked by incubation with PBS containing 1% BSA, then washed with 2 mls per well PBS-T prior to starting the reaction. Reactions were carried out in 100 μL reaction volumes containing 36 μM ATP in kinase buffer (50 mM Hepes buffer pH 7.4, 20 mM MgCl2, 0.1 mM MnCl2 and 0.2 mM Na3VO4). Test compounds were reconstituted in 100% DMSO and added to the reaction to give a final DMSO concentration of 5%. Reactions were initiated by the addition 20 ul per well of kinase buffer containing 200-300 ng purified cytoplasmic domain PDGFR-β protein (Millipore). Following a 60 minute incubation at 30° C., the reactions were washed 2 mls per well PBS-T. 100 μl of a monoclonal anti-phosphotyrosine antibody-peroxidase conjugate diluted 1:10,000 in PBS-T was added to the wells for 30 minutes. Following a 2 mls per well wash with PBS-Tween-20, 100 μl of 0-Phenylenediamine Dihydrochloride in phosphate-citrate buffer, containing urea hydrogen peroxide, was added to the wells for 7-10 minutes as a colorimetric substrate for the peroxidase. The reaction was terminated by the addition of 100 μl of 2.5N H2SO4 to each well and read using a microplate ELISA reader set at 492 nm. IC50 values for compound inhibition were calculated directly from graphs of optical density (arbitrary units) versus compound concentration following subtraction of blank values. […]
As for `Nc1ncc2c(n1)CCN(c1cccc(C(=O)Nc3cccc(C(F)(F)F)c3)c1)C2` [Example 5, 3-(2-amino-7,8-dihydropyrido[4,3-d]pyrimidin-6(5H)-yl)-N-(3-(trifluoromethyl)phenyl)benzamide], the IC50 was found to be 26 nM.
The compound `CC(C)c1ccc(NC(=O)c2cccc(N3CCc4nc(N)ncc4C3)c2)cc1` [Example 12, 3-(2-amino-7,8-dihydropyrido[4,3-d]pyrimidin-6(5H)-yl)-N-(4-isopropylphenyl)benzamide] registered an IC50 of 24 nM.
For the compound `COc1cccc(NC(=O)c2cccc(N3CCc4nc(N)ncc4C3)c2)c1` [Example 7, 3-(2-amino-7,8-dihydropyrido[4,3-d]pyrimidin-6(5H)-yl)-N-(3-methoxyphenyl)benzamide], half-maximal inhibition (IC50) required 1240 nM.
Regarding `CCN(CC)C(=O)c1cccc(N2CCc3nc(N)ncc3C2)c1` [Example 21, 3-(2-amino-7,8-dihydropyrido[4,3-d]pyrimidin-6(5H)-yl)-N,N-diethylbenzamide], the IC50 is over 1000 nM.
For `Cc1ccc(NC(=O)Nc2ccc(N3CCc4ccncc4C3)cc2)cc1` [Example 165, 1-[4-(3,4-dihydro-2,7-naphthyridin-2(1H)-yl)phenyl]-3-(4-methylphenyl)urea], the IC50 is over 1000 nM.
`Cc1cccc(NC(=O)c2cccc(N3CCc4nc(N)ncc4C3)n2)c1` [Example 37, 6-(2-amino-7,8-dihydropyrido[4,3-d]pyrimidin-6(5H)-yl)-N-(3-methylphenyl)pyridine-2-carboxamide] gave a 50% inhibitory concentration (IC50) of over 10000 nM.
In turn, `CC(C)c1cccc(NC(=O)c2cccc(N3CCc4nc(N)ncc4C3)c2)c1` [Example 2, 3-(2-amino-7,8-dihydropyrido[4,3-d]pyrimidin-6(5H)-yl)-N-(3-isopropylphenyl)benzamide] had an IC50 of 21 nM. In other words, the double-digit nanomolar range.
On the same count and under the same terms, next, `O=C(Nc1ccccc1)Nc1ccc(N2CCc3ccncc3C2)cc1` [Example 164, 1-[4-(3,4-dihydro-2,7-naphthyridin-2(1H)-yl)phenyl]-3-phenylurea]: over 10000 nM; `CCc1cccc(NC(=O)c2cccc(N3CCc4nc(N)ncc4C3)c2)c1` [Example 9, 3-(2-amino-7,8-dihydropyrido[4,3-d]pyrimidin-6(5H)-yl)-N-(3-ethylphenyl)benzamide]: 52 nM; `CC(C)(C)CCNC(=O)c1cccc(N2CCc3nc(N)ncc3C2)c1` [Example 20, 3-(2-amino-7,8-dihydropyrido[4,3-d]pyrimidin-6(5H)-yl)-N-(3,3-dimethylbutyl)benzamide]: 164 nM.
Take `CCCc1ccc(NC(=O)c2cccc(N3CCc4nc(N)ncc4C3)c2)cc1` [Example 10, 3-(2-amino-7,8-dihydropyrido[4,3-d]pyrimidin-6(5H)-yl)-N-(4-propylphenyl)benzamide]: the half-inhibitory concentration (IC50) is 32 nM.
Take `CN1CCC(Oc2ccc(NC(=O)c3cccc(N4CCc5nc(N)ncc5C4)c3)cc2)CC1` [Example 11, 3-(2-amino-7,8-dihydropyrido[4,3-d]pyrimidin-6(5H)-yl)-N-(4-((1-methylpiperidin-4-yl)oxy)phenyl)benzamide]: the IC50 is over 1000 nM.
Compound `Nc1ncc2c(n1)CCN(c1cccc(C(=O)NC3CCCC3)c1)C2` [Example 19, 3-(2-amino-7,8-dihydropyrido[4,3-d]pyrimidin-6(5H)-yl)-N-cyclopentylbenzamide] registered an IC50 of over 10000 nM.
As to `O=C(Nc1ccc(N2CCc3ccncc3C2)cc1)c1cccc(C(F)(F)F)c1` [Example 162, N-[4-(3,4-dihydro-2,7-naphthyridin-2(1H)-yl)phenyl]-3-(trifluoromethyl)benzamide], the concentration for half-maximal inhibition (IC50) was over 10000 nM.
On to `CCc1ccc(NC(=O)c2cccc(N3CCc4nc(N)ncc4C3)c2)cc1` [Example 8, 3-(2-amino-7,8-dihydropyrido[4,3-d]pyrimidin-6(5H)-yl)-N-(4-ethylphenyl)benzamide], for which the concentration for half-maximal inhibition (IC50) turned out to be 134 nM. This lies in the sub-micromolar range.
For the compound `CCCCNC(=O)c1cccc(N2CCc3nc(N)ncc3C2)c1` [Example 16, 3-(2-amino-7,8-dihydropyrido[4,3-d]pyrimidin-6(5H)-yl)-N-butylbenzamide], the IC50 is over 10000 nM.

Values taken from patent publication US9388176B2, “Method of treating conditiions with kinase inhibitors” (Allergan, Inc., priority 2012, dated 2016).
